Values quoted from earlier work in patent US11439647B2 (Janssen Pharmaceutica NV, priority 2020, dated 2022).

## CCCCCCCCCCCCCCCC(=O)OC1CCCn2c1nc(C)c(CCN1CCC(c3noc4cc(F)ccc34)CC1)c2=O (racemic) [paliperidone palmitate, (±)-3-[2-[4-(6-fluoro-1,2-benzisoxazol-3-yl)-1-piperidinyl]ethyl]-6,7,8,9-tetrahydro-2-methyl-4-oxo-4H-pyrido[1,2-c]pyrimidin-9-yl hexadecanoate]
  water solubility: extreme low
